Experimental data from ChEMBL document CHEMBL4308841, “Synthesis, in vitro antiproliferative activity, and kinase inhibitory effects of pyrazole-containing diarylureas and diarylamides” (Eur J Med Chem, 2018).

Legend:
PC-3 = assay: Growth inhibition of human PC3 cells incubated for 48 hrs by sulforhodamine B assay; assay type: functional, cell-based; settings: PC-3, 48 h
SNB-19 = assay: Growth inhibition of human SNB19 cells incubated for 48 hrs by sulforhodamine B assay; assay type: functional, cell-based; settings: SNB-19, 48 h
HL-60(TB) = assay: Growth inhibition of human HL-60(TB) cells assessed as cell growth at 0.01 uM incubated for 48 hrs by sulforhodamine B assay relative to control; assay type: functional; settings: HL-60, 48 h, read-out: Activity
NCI-H322M [1] = assay: Growth inhibition of human NCI-H322M cells assessed as cell growth at 0.1 uM incubated for 48 hrs by sulforhodamine B assay relative to control; assay type: functional; settings: read-out: Activity
MDA-MB-435 = assay: Growth inhibition of human MDA-MB-435 cells assessed as cell growth at 0.01 uM incubated for 48 hrs by sulforhodamine B assay relative to control; assay type: functional; settings: MDA-MB-435, 48 h, read-out: Activity
NCI-H322M [2] = assay: Growth inhibition of human NCI-H322M cells assessed as cell growth at 0.01 uM incubated for 48 hrs by sulforhodamine B assay relative to control; assay type: functional; settings: read-out: Activity
DU-145 = assay: Growth inhibition of human DU145 cells assessed as cell growth at 0.01 uM incubated for 48 hrs by sulforhodamine B assay relative to control; assay type: functional; settings: DU-145, 48 h, read-out: Activity
SK-MEL-5 = assay: Growth inhibition of human SK-MEL-5 cells assessed as cell growth at 100 uM incubated for 48 hrs by sulforhodamine B assay relative to control; assay type: functional; settings: SK-MEL-5, 48 h, read-out: Activity
NCI-H460 = assay: Growth inhibition of human NCI-H460 cells assessed as cell growth at 0.01 uM incubated for 48 hrs by sulforhodamine B assay relative to control; assay type: functional; settings: NCI-H460, 48 h, read-out: Activity
MDA-MB-468 = assay: Growth inhibition of human MDA-MB-468 cells assessed as cell growth at 100 uM incubated for 48 hrs by sulforhodamine B assay relative to control; assay type: functional; settings: MDA-MB-468, 48 h, read-out: Activity
SF-539 = assay: Growth inhibition of human SF539 cells assessed as cell growth at 100 uM incubated for 48 hrs by sulforhodamine B assay relative to control; assay type: functional; settings: SF-539, 48 h, read-out: Activity
M14 = assay: Growth inhibition of human M14 cells assessed as cell growth at 0.1 uM incubated for 48 hrs by sulforhodamine B assay relative to control; assay type: functional; settings: M14, 48 h, read-out: Activity
NCI/ADR-RES = assay: Growth inhibition of human NCI/ADR-RES cells assessed as cell growth at 1 uM incubated for 48 hrs by sulforhodamine B assay relative to control; assay type: functional; settings: read-out: Activity
MCF7 = assay: Growth inhibition of human MCF7 cells assessed as cell growth at 1 uM incubated for 48 hrs by sulforhodamine B assay relative to control; assay type: functional; settings: MCF7, 48 h, read-out: Activity
MDA-MB-231 [3] = assay: Growth inhibition of human MDA-MB-231 cells assessed as cell growth at 100 uM incubated for 48 hrs by sulforhodamine B assay relative to control; assay type: functional; settings: MDA-MB-231, 48 h, read-out: Activity
CCRF-CEM = assay: Growth inhibition of human CCRF-CEM cells assessed as cell growth at 1 uM incubated for 48 hrs by sulforhodamine B assay relative to control; assay type: functional; settings: read-out: Activity
KM12 [4] = assay: Growth inhibition of human KM12 cells assessed as cell growth at 0.01 uM incubated for 48 hrs by sulforhodamine B assay relative to control; assay type: functional; settings: KM12, 48 h, read-out: Activity
CAKI-1 = assay: Growth inhibition of human Caki1 cells assessed as cell growth at 0.1 uM incubated for 48 hrs by sulforhodamine B assay relative to control; assay type: functional; settings: CAKI-1, 48 h, read-out: Activity
HCC 2998 = assay: Growth inhibition of human HCC2998 cells incubated for 48 hrs by sulforhodamine B assay; assay type: functional, cell-based; settings: HCC 2998, 48 h
UACC-257 = assay: Growth inhibition of human UACC257 cells incubated for 48 hrs by sulforhodamine B assay; assay type: functional, cell-based; settings: UACC-257, 48 h
MOLT-4 = assay: Growth inhibition of human MOLT4 cells incubated for 48 hrs by sulforhodamine B assay; assay type: functional, cell-based; settings: MOLT-4, 48 h
KM12 [5] = assay: Growth inhibition of human KM12 cells assessed as cell growth at 0.1 uM incubated for 48 hrs by sulforhodamine B assay relative to control; assay type: functional; settings: KM12, 48 h, read-out: Activity
MDA-MB-231 [6] = assay: Growth inhibition of human MDA-MB-231 cells incubated for 48 hrs by sulforhodamine B assay; assay type: functional, cell-based; settings: MDA-MB-231, 48 h
NCI-H522 = assay: Growth inhibition of human NCI-H522 cells assessed as cell growth at 0.1 uM incubated for 48 hrs by sulforhodamine B assay relative to control; assay type: functional; settings: NCI-H522, 48 h, read-out: Activity
SNB-75 = assay: Growth inhibition of human SNB75 cells assessed as cell growth at 0.01 uM incubated for 48 hrs by sulforhodamine B assay relative to control; assay type: functional; settings: SNB-75, 48 h, read-out: Activity
SN12C = assay: Growth inhibition of human SN12C cells assessed as cell growth at 1 uM incubated for 48 hrs by sulforhodamine B assay relative to control; assay type: functional; settings: read-out: Activity
SK-MEL-2 = assay: Growth inhibition of human SK-MEL-2 cells assessed as cell growth at 100 uM incubated for 48 hrs by sulforhodamine B assay relative to control; assay type: functional; settings: SK-MEL-2, 48 h, read-out: Activity
NCI-H226 = assay: Growth inhibition of human NCI-H226 cells assessed as cell growth at 100 uM incubated for 48 hrs by sulforhodamine B assay relative to control; assay type: functional; settings: NCI-H226, 48 h, read-out: Activity
[7] = read-out: LC50 (the source's name)
[8] = read-out: pLC50 (the source's name) (converted)

## COc1cc(Cl)cc(-c2nn(-c3cccc(NC(=O)Nc4ccc(Cl)c(Cl)c4)c3)cc2-c2ccncc2)c1
PC-3
  IC50: 1.13 µM
PC-3; read-out: GI50
  GI50: 1.13 µM
PC-3; [7]
  CC50: > 100 µM
PC-3; read-out: TGI
  TGI: 52.5 µM
PC-3; read-out: pGI50 (converted)
  GI50: 1.12 µM
PC-3; [8]
  CC50: > 100 µM
PC-3; read-out: pTGI (converted)
  TGI: 5.25 µM
SNB-19; read-out: GI50
  GI50: 3.51 µM
SNB-19; [7]
  CC50: > 100 µM
SNB-19; read-out: TGI
  TGI: > 100 µM
SNB-19; read-out: pGI50 (converted)
  GI50: 3.55 µM
SNB-19; [8]
  CC50: > 100 µM
SNB-19; read-out: pTGI (converted)
  TGI: > 100 µM
HL-60(TB)
  growth at 0.01 µM: 99%
NCI-H322M [1]
  growth at 0.1 µM: 90%
MDA-MB-435
  growth at 0.01 µM: 93%
NCI-H322M [2]
  growth at 0.01 µM: 101%
DU-145
  growth at 0.01 µM: 101%
SK-MEL-5
  growth at 100 µM: -68%
NCI-H460
  growth at 0.01 µM: 100%
MDA-MB-468
  growth at 100 µM: -18%
SF-539
  growth at 100 µM: -40%
M14
  growth at 0.1 µM: 100%
NCI/ADR-RES
  growth at 1 µM: 78%
MCF7
  growth at 1 µM: 83%
MDA-MB-231 [3]
  growth at 100 µM: -70%
CCRF-CEM
  growth at 1 µM: 82%
KM12 [4]
  growth at 0.01 µM: 96%
CAKI-1
  growth at 0.1 µM: 102%
HCC 2998; read-out: GI50
  GI50: 3.16 µM
HCC 2998; [7]
  CC50: > 100 µM
HCC 2998; read-out: TGI
  TGI: 35.8 µM
HCC 2998; read-out: pGI50 (converted)
  GI50: 3.16 µM
HCC 2998; [8]
  CC50: > 100 µM
HCC 2998; read-out: pTGI (converted)
  TGI: 37.2 µM
UACC-257; read-out: GI50
  GI50: 1.54 µM
UACC-257; [7]
  CC50: > 100 µM
UACC-257; read-out: TGI
  TGI: 61.9 µM
UACC-257; read-out: pGI50 (converted)
  GI50: 1.86 µM
UACC-257; [8]
  CC50: > 100 µM
UACC-257; read-out: pTGI (converted)
  TGI: 5.25 µM
MOLT-4; read-out: GI50
  GI50: 1.59 µM
MOLT-4; [7]
  CC50: > 100 µM
MOLT-4; read-out: TGI
  TGI: 61.3 µM
MOLT-4; read-out: pGI50 (converted)
  GI50: 1.7 µM
MOLT-4; [8]
  CC50: > 100 µM
MOLT-4; read-out: pTGI (converted)
  TGI: 6.17 µM
KM12 [5]
  growth at 0.1 µM: 92%
MDA-MB-231 [6]; read-out: GI50
  GI50: 1.87 µM
MDA-MB-231 [6]; [7]
  CC50: 1.5 µM
MDA-MB-231 [6]; read-out: TGI
  TGI: 45.2 µM
MDA-MB-231 [6]; read-out: pGI50 (converted)
  GI50: 1.86 µM
MDA-MB-231 [6]; [8]
  CC50: 15.8 µM
MDA-MB-231 [6]; read-out: pTGI (converted)
  TGI: 4.47 µM
NCI-H522
  growth at 0.1 µM: 53%
SNB-75
  growth at 0.01 µM: 88%
SN12C
  growth at 1 µM: 87%
SK-MEL-2
  growth at 100 µM: -70%
NCI-H226
  growth at 100 µM: 2%
